Drawing on ChEMBL document CHEMBL5260832, “Hepatoprotective natural triterpenoids” (Eur J Med Chem, 2018), this text covers Activity and IC50 for 31 compounds.

One series relates to L02. In words: Hepatoprotective activity against D-GaIN-induced cell damage in human HL7702 cells assessed as increase in cell survival at 10 uM relative to control. It is filed as functional.
Series [1] in a line: Hepatotoxicity in rat assessed as reduction in GPT level at 1.0 mg/mL measured after 48 hrs (reference value: 291 IU/L). To be noted: in vivo. The class given is toxicity.
The nature of series [2]: Antiproliferative activity against rat HSC-T6 cells assessed as reduction in cell viability incubated for 48 hrs by MTT assay. The class given is functional, cell-based. The settings on record: HSC-T6, 48 h. In general terms: Tetrazolium assays rely on reduction of a dye to a coloured formazan, in cell work by metabolically active cells.
The species entered for series [3] is Mus musculus. The experiment in a line: Hepatoprotective activity in CCl4-induced toxicity in liver injured mouse assessed as increase in inhibition of liver damage relative to control. It is filed as functional. On the set-up: concentration or dose not given beside the values.
Series [4] has as its system Mus musculus. In words: Hepatoprotective activity against D-GaIN/CCl4 induced liver injury mouse model assessed as reduction in GPT level at 30 microg/kg, iv relative to control. The class given is functional. On the set-up: scale not given: the % may be the effect or the level left. To be noted: dose 30 µg/kg.
Series [5] can be described thus: Hepatotoxicity in D-GaIN induced in Wistar rat model hepatocyte assessed as reduction in PLA2 level. It is filed as toxicity, cell-based.
In the next series the test system is Hepatocyte. The experiment in a line: Hepatoprotective activity against D-GaIN/TNFalpha-induced cell death in mouse hepatocyte at 100 uM relative to control. The class given is functional, cell-based. To be noted: Mus musculus, Hepatocyte.

With `C/C(=C/C(=O)CC(C)C(=O)O)[C@H]1CC(=O)[C@@]2(C)C3=C(C(=O)C[C@]12C)[C@@]1(C)CC[C@H](O)C(C)(C)[C@@H]1C[C@@H]3O` (stereo partly specified), the Activity in the series with L02 worked out at 65%.

For `CC1(C)CC[C@]2(C(=O)O[C@@H]3O[C@H](CO[C@@H]4O[C@H](CO)[C@@H](O)[C@H](O)[C@H]4O)[C@@H](O)[C@H](O[C@@H]4O[C@H](CO)[C@@H](O)[C@H](O)[C@H]4O)[C@H]3O)CC[C@]3(C)C(=CC[C@@H]4[C@@]5(C)CC[C@H](O[C@@H]6O[C@H](CO)[C@@H](O)[C@H](O)[C@H]6O)[C@@](C)(C(=O)O)[C@@H]5CC[C@]43C)[C@@H]2C1`, the Activity in series [1] turned out to be 279 IU/L.

Usually IC50 stands for the midpoint of a concentration-inhibition curve. With `C[C@@H]1O[C@@H](O[C@H]2[C@H](OC(=O)[C@]34CCC(C)(C)C[C@H]3C3=CC[C@@H]5[C@@]6(C)C[C@H](O)[C@H](O[C@@H]7O[C@H](CO)[C@@H](O)[C@H](O)[C@H]7O)C(CO)(CO)[C@@H]6CC[C@@]5(C)[C@]3(C)C[C@H]4O)OC[C@H](O)[C@@H]2O)[C@H](O)[C@H](O)[C@H]1O[C@@H]1OC[C@@H](O)[C@H](O[C@@H]2OC[C@](O)(CO)[C@H]2O)[C@H]1O` [PLATYCODIN D], the IC50 in series [2] was found to be 1.77 µM.

For the compound `CC1(C)CC[C@]2(C(=O)O[C@@H]3O[C@H](CO)[C@@H](O)[C@H](O)[C@H]3O)CC[C@]3(C)C(=CC[C@@H]4[C@@]5(C)CC[C@H](O)[C@@](C)(C(=O)O)[C@@H]5CC[C@]43C)[C@@H]2C1`, in series [1], the Activity was 137 IU/L.

For `COC(=O)[C@]12CC[C@@H](C)[C@H](C)[C@H]1C1=CC[C@@H]3[C@@]4(C)C[C@@H](OC(C)=O)[C@H](O)[C@@](C)(COC(C)=O)[C@@H]4CC[C@@]3(C)[C@]1(C)CC2`, the Activity in the series listed under Mus musculus [3] turned out to be 54.2%.

Turning to `CC(C)=CCC[C@](C)(O)[C@H]1CC[C@]2(C)[C@@H]1[C@H](O)C[C@@H]1[C@@]3(C)CC[C@H](O[C@@H]4O[C@H](CO)[C@@H](O)[C@H](O)[C@H]4O[C@@H]4O[C@H](CO)[C@@H](O)[C@H](O)[C@H]4O)C(C)(C)[C@@H]3CC[C@]12C`, in the series on Mus musculus [4], the Activity is 63%.

With `C/C(=C\CCC(C)(O)[C@H]1C[C@H](O)[C@@]2(C)C3=C(C(=O)C[C@]12C)[C@@]1(C)CC[C@H](O)C(C)(C)[C@@H]1C[C@@H]3O)C(=O)O` (stereo partly specified), in the series on L02, the Activity was 43%.

Take `C/C(CC(=O)CC(C)C(=O)O)=C1/CC(=O)[C@@]2(C)C3=C(C(=O)C[C@]12C)[C@@]1(C)CC[C@H](O)C(C)(C)[C@@H]1CC3=O` (stereo partly specified): the Activity in the series with L02 was 55%.

In the case of `CC(CC(=O)C[C@@H](C)C1=CC(=O)[C@@]2(C)[C@@H]3C(=O)C[C@H]4C(C)(C)[C@@H](O)CC[C@]4(C)[C@H]3C(=O)C[C@]12C)C(=O)O` (stereo partly specified), the Activity with L02 is listed as 75%.

`CC(C)=CCC[C@@](C)(O)[C@H]1CC[C@]2(C)[C@@H]1[C@H](O)C[C@@H]1[C@@]3(C)CC[C@H](O[C@@H]4O[C@H](CO)[C@@H](O)[C@H](O)[C@H]4O[C@@H]4O[C@H](CO)[C@@H](O)[C@H](O)[C@H]4O)C(C)(C)[C@@H]3CC[C@]12C`: in the series with Mus musculus [4], the Activity is 34%.

As for `C[C@@H]1O[C@@H](O[C@H]2[C@H](OC(=O)[C@]34CCC(C)(C)C[C@H]3C3=CC[C@@H]5[C@@]6(C)C[C@H](O)[C@H](O[C@@H]7O[C@H](CO)[C@@H](O)[C@H](O)[C@H]7O)[C@](C)(CO)[C@@H]6CC[C@@]5(C)[C@]3(C)C[C@H]4O)OC[C@H](O)[C@@H]2O)[C@H](O)[C@H](O)[C@H]1O[C@@H]1OC[C@@H](O)[C@H](O[C@@H]2OC[C@](O)(CO)[C@H]2O)[C@H]1O`, in series [2], the IC50 stood at 1.04 µM.

In the case of `CC(=O)[C@H]1CC(=O)[C@@]2(C)C3=C(C(=O)C[C@]12C)[C@@]1(C)CCC(=O)C(C)(C)[C@@H]1C[C@@H]3O`, the Activity with L02 is 58%.

For the compound `CC1(C)CC[C@]2(C(=O)O[C@@H]3O[C@H](CO[C@@H]4O[C@H](CO)[C@@H](O)[C@H](O)[C@H]4O)[C@@H](O)[C@H](O[C@@H]4O[C@H](CO)[C@@H](O)[C@H](O)[C@H]4O)[C@H]3O)CC[C@]3(C)C(=CC[C@@H]4[C@@]5(C)CC[C@H](O)[C@@](C)(C(=O)O)[C@@H]5CC[C@]43C)[C@@H]2C1`, the Activity in series [1] came out at 279 IU/L.

With `C[C@@H]1O[C@@H](O[C@H]2[C@H](OC(=O)[C@]34CCC(C)(C)C[C@H]3C3=CC[C@@H]5[C@@]6(C)C[C@H](O)[C@H](O[C@@H]7O[C@H](CO)[C@@H](O)[C@H](O)[C@H]7O)C(CO)(CO)[C@@H]6CC[C@@]5(C)[C@]3(C)C[C@H]4O)OC[C@H](O)[C@@H]2O)[C@H](O)[C@H](O)[C@H]1O[C@@H]1OC[C@@H](O)[C@H](O)[C@H]1O`, the IC50 in series [2] was found to be 8.24 µM.

On to `CC1(C)CC[C@]2(N)C(=O)C[C@]3(C)C(=CC[C@@H]4[C@@]5(C)C[C@H](O)[C@H](O)C(CO)(CO)[C@@H]5CC[C@]43C)[C@@H]2C1`, for which the IC50 in series [2] was found to be 5.27 µM.

`CC(C)=CCC[C@](C)(O)[C@H]1CC[C@]2(C)[C@@H]1[C@H](O)C[C@@H]1[C@@]3(C)CC[C@H](O[C@@H]4O[C@H](CO)[C@@H](O)[C@H](O)[C@H]4O)C(C)(C)[C@@H]3CC[C@]12C` [GINSENOSIDE RH2]: the Activity in the series on Mus musculus [4] is recorded as 31%.

For `CC1(C)CC[C@]2(C(=O)O[C@@H]3O[C@H](CO[C@@H]4O[C@H](CO)[C@@H](O)[C@H](O)[C@H]4O)[C@@H](O)[C@H](O)[C@H]3O)CC[C@]3(C)C(=CC[C@@H]4[C@@]5(C)CC[C@H](O[C@@H]6O[C@H](CO)[C@@H](O)[C@H](O)[C@H]6O)[C@@](C)(C(=O)O)[C@@H]5CC[C@]43C)[C@@H]2C1`, the Activity in series [1] came out at 279 IU/L.

Take `COC(=O)[C@]12CC[C@@H](C)[C@H](C)[C@H]1C1=CC[C@@H]3[C@@]4(C)CC(=O)[C@H](O)[C@@](C)(COC(C)=O)[C@@H]4CC[C@@]3(C)[C@]1(C)CC2`: in the series filed under Mus musculus [3], the Activity was determined as 46.4%.

On to `CC(C)=CCC[C@](C)(O[C@@H]1O[C@H](CO)[C@@H](O)[C@H](O)[C@H]1O)[C@H]1CC[C@]2(C)[C@@H]1[C@H](O)C[C@@H]1[C@@]3(C)CC[C@H](O)C(C)(C)[C@@H]3CC[C@]12C`, for which the Activity in the series on Mus musculus [4] is listed as 76%.

As for `CC(=O)OC[C@@]1(C)[C@@H]2CC[C@]3(C)[C@H](C(=O)C=C4[C@@H]5[C@@H](C)[C@H](C)CC[C@]5(C(=O)O)CC[C@]43C)[C@@]2(C)CC(=O)[C@@H]1O`, the Activity in the series listed under Mus musculus [3] came to 35.9%.

As to `CC(C)=CCC[C@@](C)(O)[C@H]1CC[C@]2(C)[C@@H]1[C@H](O)C[C@@H]1[C@@]3(C)CC[C@H](O)C(C)(C)[C@@H]3[C@@H](O[C@@H]3O[C@H](CO)[C@@H](O)[C@H](O)[C@H]3O[C@@H]3O[C@H](CO)[C@@H](O)[C@H](O)[C@H]3O)C[C@]12C`, in the series with Mus musculus [4], the Activity was found to be 73%.

Take `CC(=O)OC[C@@]1(C)[C@@H]2CC[C@]3(C)[C@H](C(=O)C=C4[C@@H]5[C@@H](C)[C@H](C)CC[C@]5(C(=O)O)CC[C@]43C)[C@@]2(C)CC(=O)[C@@H]1OC(C)=O`: the Activity in the series listed under Mus musculus [3] was found to be 22%.

With `CC1(C)CC[C@]2(C(=O)O)[C@H](O)C[C@]3(C)C(=CC[C@@H]4[C@@]5(C)C[C@H](O)[C@H](O[C@@H]6O[C@H](CO)[C@@H](O)[C@H](O)[C@H]6O)C(CO)(CO)[C@@H]5CC[C@]43C)[C@@H]2C1`, in series [2], the IC50 amounted to 13.4 µM.

For `CC(C)=CCC[C@](C)(O)[C@H]1CC[C@]2(C)[C@@H]1[C@H](O)C[C@@H]1[C@@]3(C)CC[C@H](O)C(C)(C)[C@@H]3[C@@H](O[C@@H]3O[C@H](CO)[C@@H](O)[C@H](O)[C@H]3O[C@@H]3O[C@H](CO)[C@@H](O)[C@H](O)[C@H]3O)C[C@]12C` [GINSENOSIDE RF], in the series with Mus musculus [4], the Activity is given as 77%.

`CC1(C)[C@@H](O[C@@H]2O[C@H](C(=O)O)[C@@H](O)[C@H](O)[C@H]2O[C@@H]2O[C@H](C(=O)O)[C@@H](O)[C@H](O)[C@H]2O)CC[C@]2(C)[C@H]3C(=O)C=C4[C@@H]5C[C@]6(C)C[C@@H](OC6=O)[C@]5(C)CC[C@@]4(C)[C@]3(C)CC[C@@H]12`: the IC50 in series [5] was found to be 32.2 µM.

In the case of `C[C@H]1[C@H](C)CC[C@]2(C(=O)O)CC[C@]3(C)C(=CC(=O)[C@@H]4[C@@]5(C)C[C@@H](O)[C@H](O)[C@@](C)(CO)[C@@H]5CC[C@]43C)[C@H]12`, the Activity in the series listed under Mus musculus [3] is 25.6%.

For `C[C@H]1[C@H](C)CC[C@]2(CO)CC[C@]3(C)C(=CC[C@@H]4[C@@]5(C)C[C@@H](O)[C@H](O)[C@@](C)(CO)[C@@H]5CC[C@]43C)[C@H]12`, the Activity in the series filed under Mus musculus [3] is 39.7%.

On to `CC(CC(=O)C[C@@H](C)[C@H]1C[C@H](O)[C@@]2(C)C3=C(C(=O)C[C@]12C)[C@@]1(C)CC[C@H](O)C(C)(C)[C@@H]1C[C@@H]3O)C(=O)O` (stereo partly specified), for which the Activity in the series with L02 turned out to be 76%.

As to `C[C@@]1(CO)CC[C@]2(C(=O)O[C@@H]3O[C@H](CO)[C@@H](O)[C@H](O)[C@H]3O)CC[C@]3(C)C(=CC[C@@H]4[C@@]5(C)CC[C@H](O)[C@@](C)(C(=O)O)[C@@H]5CC[C@]43C)[C@@H]2C1`, the Activity in series [1] stood at 206 IU/L.

For `CC1(C)CC[C@]2(N)C(=O)C[C@]3(C)C(=CC[C@@H]4[C@@]5(C)C[C@H](O)[C@H](O[C@@H]6O[C@H](CO)[C@@H](O)[C@H](O)[C@H]6O)C(CO)(CO)[C@@H]5CC[C@]43C)[C@@H]2C1`, the IC50 in series [2] came out at 69.6 µM.

On to `CC1=C2C3=CC[C@@H]4[C@@]5(C)C[C@@H](O)[C@H](O)[C@@](C)(CO)[C@@H]5CC[C@@]4(C)[C@]3(C)CC[C@@]2(C(=O)O)CC[C@H]1C`, for which the midpoint of inhibition with Hepatocyte, the IC50, lay at 51 µM.
